The assay concerns ATF4 translation. Nature of the assay: ATF4 Nano Luciferase reporter integrated stress response (ISR) assay in H4 ATF4-NLuc cells. It is filed as cell-based, human. The following applies: Homo sapiens, 0.5 h, H4 ATF4-NLuc (clone 17) cells, compound 30 minutes, then sodium arsenite for 6 additional hours, luminescence readout. The source says: Cellular stress leads to activation of the integrated stress response pathway through one of four eukaryotic initiation factor 2a kinases and halts global translation, while allowing for the translation of select transcripts like ATF4 (activating transcription factor 4) that are important for the response to cellular stress. During normal conditions, small open reading frames (ORFs) in the 5′ UTR of ATF4 occupy the ribosome and prevent translation of the coding sequence of ATF4. During stress conditions however, the ribosome scans past these upstream ORFs and preferentially begins translation at the coding sequence of ATF4. In this way, the translation, and thus protein level of ATF4 is a readout of ISR pathway activation. Thus, a fusion of the uORFs and the beginning of the coding sequence of ATF to a common cellular reporter like nano-luciferase allows for a sensitive and high-throughput readout of ISR pathway activity.
Compounds as provided herein were tested in the following assay. The ATF4 Nano Luciferase reporter was constructed by fusing the human full length 5′ untranslated region (5′-UTR) and a small portion of the coding sequence of the ATF4 gene upstream of the Nano Luciferase (NLuc) coding sequence lacking it's start codon. Specifically, nucleotides +1 through +364 (relative to the transcriptional start site) of ATF4 transcript variant 2 (NCBI NM_182810.2) flanked 5′ by EcoRI and 3′ by BamHI restriction enzyme sites were synthesized and cloned into the EcoRI/BamHI cloning sites of pLVX-EF1a-IRES-Puro lentivirus vector (Clontech). Lentiviral particles were produced with Lenti-X single shots (VSV-G, Clontech) according to the manufacturer's instructions and used to transduce a human H4 neuroglioma cell line (ATCC HTB-148). H4 cells were selected with 1.25 μg/mL Puromycin, and clonal cell lines generated by limiting dilution. We utilized this cell line to generate an integrated stress response (ISR) assay to evaluate the activity of ISR pathway inhibitors via luminescence readout. The H4 ATF4-NLuc (clone 17) cell line is plated at a density of […] in 96-well or 384-well respectively in DMEM+[…]. 24-hours later test compounds diluted in dimethyl sulfoxide (DMSO) are added for 30 minutes at 37° C., followed by ISR pathway activation with […] sodium arsenite aqueous solution for 6 additional hours. Nano Glo luciferase reagent (N1150, Promega) is added according to manufacturer instructions and the luminescence signal (corresponding to the level of ATF4 translation and thus ISR pathway activation) is read with a standard plate reader with luminescence detection capabilities. […] In the tables below, activity of the tested compounds is provided, and in Table 3 as follows: […]; ++=IC50 1-10 μM; +=IC50>10 μM.
On the technique in general: Reporter assays use an easily measured gene product as a stand-in for the process of interest.

Where [1] appears, read: read-out: Biological Example 1 (ATF4 translation, IC50 nM).

Where two headings read alike, the source gives them in different places.

Turning to `O=C(COC1CC(OC(F)(F)F)C1)NC1CC[C@@H](c2cn([C@H]3C[C@@H](OC(F)(F)F)C3)nn2)OC1` (stereo partly drawn) [Example 18, 2-[3-cis-(trifluoromethoxy)cyclobutoxy]-N-[(3R,6S)-6-[1-[3-cis-(trifluoromethoxy)cyclobutyl]triazol-4-yl]tetrahydropyran-3-yl]acetamide], the IC50 (read-out: Activity) is less than 1000 nM.
For `O=C(COC1CC(OC(F)(F)F)C1)N[C@@H]1CC[C@@H](c2nnc(-c3ccc(Cl)c(F)c3)o2)OC1` (stereo partly drawn) [Example 19, N-[(3R,6S)-6-[5-(4-chloro-3-fluoro-phenyl)-1,3,4-oxadiazol-2-yl]tetrahydropyran-3-yl]-2-[3-cis-(trifluoromethoxy)cyclobutoxy]acetamide], the IC50 is less than 1000 nM (read-out: Activity) and 29.5 nM under setting [1].
Take `O=C(COc1ccc(F)cc1)N[C@@H]1CC[C@@H](c2nnc(C3CC(OC(F)(F)F)C3)o2)OC1` (stereo partly drawn) [Example 20, 2-(4-fluorophenoxy)-N-[(3R,6S)-6-[5-[3-cis-(trifluoromethoxy)cyclobutyl]-1,3,4-oxadiazol-2-yl]tetrahydropyran-3-yl]acetamide]: the IC50 (read-out: Activity) is less than 1000 nM.
Consider `O=C(COc1ccc(Cl)c(F)c1)NC12CCC(c3nnc([C@H]4C[C@@H](OC(F)(F)F)C4)o3)(CC1)OC2` [Example 21, 2-(4-chloro-3-fluoro-phenoxy)-N-[1-[5-[3-cis-(trifluoromethoxy)cyclobutyl]-1,3,4-oxadiazol-2-yl]-2-oxabicyclo[2.2.2]octan-4-yl]acetamide], for which the IC50 reads like this: (read-out: Activity) less than 1000 nM; under setting [1], 4 nM.
For `O=C(COc1ccc(F)cc1)NC12CCC(c3nnc([C@H]4C[C@@H](OC(F)(F)F)C4)o3)(CC1)OC2` [Example 22, 2-(4-fluorophenoxy)-N-[1-[5-[3-cis-(trifluoromethoxy)cyclobutyl]-1,3,4-oxadiazol-2-yl]-2-oxabicyclo[2.2.2]octan-4-yl]acetamide], the IC50 (read-out: Activity) is less than 1000 nM.
With `COC(=O)[C@@H]1CC[C@@H](NC(=O)COc2ccc(Cl)cc2)CO1` [Example 23, Methyl (2S,5R)-5-[[2-(4-chlorophenoxy)acetyl]amino]tetrahydropyran-2-carboxylate], the IC50 (read-out: Activity) lay within 1000 to 10000 nM.
Regarding `O=C(COc1ccc(F)c(F)c1)N[C@@H]1CC[C@@H](c2nnc([C@H]3C[C@@H](OC(F)(F)F)C3)o2)OC1` [Example 24, 2-(3,4-difluorophenoxy)-N-((3R,6S)-6-(5-(3-cis-(trifluoromethoxy)cyclobutyl)-1,3,4-oxadiazol-2-yl)tetrahydro-2H-pyran-3-yl)acetamide], the IC50 is, setting by setting: (read-out: Activity) less than 1000 nM; under setting [1], 10.5 nM.
Take `O=C(COc1ccc(F)c(F)c1)NC12CCC(c3nnc([C@H]4C[C@@H](OC(F)(F)F)C4)o3)(CC1)OC2` [Example 25, 2-(3,4-difluorophenoxy)-N-[1-[5-[3-cis-(trifluoromethoxy)cyclobutyl]-1,3,4-oxadiazol-2-yl]-2-oxabicyclo[2.2.2]octan-4-yl]acetamide]: the IC50 (read-out: Activity) was less than 1000 nM.
Take `O=C(COc1ccc(Cl)cc1)NC12CCC(c3nnc([C@H]4C[C@@H](OC(F)(F)F)C4)o3)(CC1)OC2` [Example 26, 2-(4-chlorophenoxy)-N-[1-[5-[3-cis-(trifluoromethoxy)cyclobutyl]-1,3,4-oxadiazol-2-yl]-2-oxabicyclo[2.2.2]octan-4-yl]acetamide]: the IC50 is, setting by setting: (read-out: Activity) less than 1000 nM; under setting [1], 2.2 nM.
Take `O=C(COc1ccccc1)N[C@@H]1CC[C@@H](c2nnc([C@H]3C[C@@H](OC(F)(F)F)C3)o2)OC1` [Example 27, 2-phenoxy-N-[(3R,6S)-6-[5-[3-cis-(trifluoromethoxy)cyclobutyl]-1,3,4-oxadiazol-2-yl]tetrahydropyran-3-yl]acetamide]: the IC50 (read-out: Activity) was less than 1000 nM.
Still for that read-out and setting: the figure for `Cc1ccc(OCC(=O)N[C@@H]2CC[C@@H](c3nnc([C@H]4C[C@@H](OC(F)(F)F)C4)o3)OC2)cc1` [Example 28, 2-(4-methylphenoxy)-N-[(3R,6S)-6-[5-[3-cis-(trifluoromethoxy)cyclobutyl]-1,3,4-oxadiazol-2-yl]tetrahydropyran-3-yl]acetamide] is less than 1000 nM; for `O=C(COc1ccc(Cl)c(F)c1)N[C@@H]1CC[C@@H](c2nnc(COC(F)(F)F)o2)OC1` [Example 30, 2-(4-chloro-3-fluorophenoxy)-N-((3R,6S)-6-(5-((trifluoromethoxy)methyl)-1,3,4-oxadiazol-2-yl)tetrahydro-2H-pyran-3-yl)acetamide] it is less than 1000 nM; for `O=C(COc1ccc(Cl)cc1F)N[C@@H]1CC[C@@H](c2nnc([C@H]3C[C@@H](OC(F)(F)F)C3)o2)OC1` [Example 31, 2-(4-chloro-2-fluoro-phenoxy)-N-[(3R,6S)-6-[5-[3-cis-(trifluoromethoxy)cyclobutyl]-1,3,4-oxadiazol-2-yl]tetrahydropyran-3-yl]acetamide] it is less than 1000 nM.
The same measure, in the same setting: the figure for `O=C(COc1ccc(F)cc1)N[C@H]1CO[C@H](c2nnc([C@H]3C[C@@H](OC(F)(F)F)C3)o2)C2CC21` (stereo partly drawn) [Example 32, 2-(4-fluorophenoxy)-N-((2S,5R)-2-(5-(3-cis-(trifluoromethoxy)cyclobutyl)-1,3,4-oxadiazol-2-yl)-3-oxabicyclo[4.1.0]heptan-5-yl)acetamide] is less than 1000 nM.
For the compound `COC1C[C@@H](c2nnc([C@H]3C[C@@H](OC(F)(F)F)C3)o2)OC[C@@H]1NC(=O)COc1ccc(F)cc1` (stereo partly drawn) [Example 33, 2-(4-fluorophenoxy)-N-((3S,6S)-4-methoxy-6-(5-(3-cis-(trifluoromethoxy)cyclobutyl)-1,3,4-oxadiazol-2-yl)tetrahydro-2H-pyran-3-yl)acetamide], the IC50 (read-out: Activity) was less than 1000 nM and the IC50 under setting [1] came to 421 nM.
`O=C(COc1ccc(F)cc1F)NC12CCC(c3nnc([C@H]4C[C@@H](OC(F)(F)F)C4)o3)(CC1)OC2` [Example 34, 2-(2,4-difluorophenoxy)-N-[1-[5-[3-cis-(trifluoromethoxy)cyclobutyl]-1,3,4-oxadiazol-2-yl]-2-oxabicyclo[2.2.2]octan-4-yl]acetamide]: the IC50 (read-out: Activity) was less than 1000 nM.
Same read-out and setting: in the case of `O=C(COc1ccc(F)cc1)N[C@H]1CO[C@H](c2nnc([C@H]3C[C@@H](OC(F)(F)F)C3)o2)CC1(F)F` [Example 35, N-[(3S,6S)-4,4-difluoro-6-[5-[3-cis-(trifluoromethoxy)cyclobutyl]-1,3,4-oxadiazol-2-yl]tetrahydropyran-3-yl]-2-(4-fluorophenoxy)acetamide] it was less than 1000 nM; in that of `CO[C@H]1C[C@@H](NC(=O)COc2ccc(F)cc2)CO[C@@H]1c1nnc([C@H]2C[C@@H](OC(F)(F)F)C2)o1` [Example 36, 2-(4-fluorophenoxy)-N-((3R,5S,6S)-5-methoxy-6-(5-(3-cis-(trifluoromethoxy)cyclobutyl)-1,3,4-oxadiazol-2-yl)tetrahydro-2H-pyran-3-yl)acetamide], less than 1000 nM; in that of `O=C(COc1ccc(F)cc1F)N[C@@H]1CC[C@@H](c2nnc([C@H]3C[C@@H](OC(F)(F)F)C3)o2)OC1` [Example 37, 2-(2,4-difluorophenoxy)-N-[(3R,6S)-6-[5-[3-cis-(trifluoromethoxy)cyclobutyl]-1,3,4-oxadiazol-2-yl]tetrahydropyran-3-yl]acetamide], less than 1000 nM.
On the same count and under the same terms, in the case of `O=C(COc1ccc(F)cc1)N[C@@H]1CC[C@@H](c2nc(C3CC(OC(F)(F)F)C3)no2)OC1` (stereo partly shown) [Example 38] it was less than 1000 nM.

For the origin of these results see patent publication US12139478B2, “Compounds, compositions and methods” (Denali Therapeutics Inc., priority 2017, dated 2024).
